From ChEMBL document CHEMBL1212695, “An allosteric potentiator of M4 mAChR modulates hippocampal synaptic transmission” (Nat Chem Biol, 2008)
Calls of active or inactive are those of the source. The calls are words filed in the database; no cut-off is given here.

What was measured:
[1] = target: T1, Muscarinic acetylcholine receptor M4 (Rattus norvegicus) (UniProt P08485); experiment: Allosteric activation of rat recombinant muscarinic M4 receptor expressed in CHO cells assessed as fold decrease in acetylcholine Ki for displacement of [3H]NMS from active binding site at 10 uM after 2 hrs by microplate scintillation counting; format: cell-based
T1 sequence (whole entry): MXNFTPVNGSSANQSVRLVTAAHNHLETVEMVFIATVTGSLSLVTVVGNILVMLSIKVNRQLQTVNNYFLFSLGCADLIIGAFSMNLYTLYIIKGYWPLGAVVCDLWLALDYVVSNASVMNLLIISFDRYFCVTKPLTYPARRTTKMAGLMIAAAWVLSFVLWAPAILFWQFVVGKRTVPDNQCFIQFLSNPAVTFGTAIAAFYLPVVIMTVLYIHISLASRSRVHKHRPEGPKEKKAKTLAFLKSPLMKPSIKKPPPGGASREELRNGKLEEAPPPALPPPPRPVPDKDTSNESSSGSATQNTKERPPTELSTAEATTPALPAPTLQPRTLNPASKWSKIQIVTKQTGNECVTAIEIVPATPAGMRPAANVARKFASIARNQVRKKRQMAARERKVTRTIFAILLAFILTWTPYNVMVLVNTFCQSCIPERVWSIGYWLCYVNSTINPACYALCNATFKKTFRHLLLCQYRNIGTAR

[2] = target: T1, Muscarinic acetylcholine receptor M4 (Rattus norvegicus); experiment: Allosteric activation of rat recombinant muscarinic M4 receptor expressed in CHO cells assessed as fold decrease in acetylcholine Ki for displacement of [3H]NMS from active binding site after 2 hrs by microplate scintillation counting; format: cell-based
[3] = target: T1, Muscarinic acetylcholine receptor M4 (Rattus norvegicus); experiment: Agonist activity at muscarinic M4 receptor in Sprague-Dawley rat hippocampal CA1 pyramidal neuron assessed as reduction of excitatory postsynaptic current at 1 uM by whole-cell electrophysiology relative to control; format: functional, tissue-based; parameters: scale not given: the % may be the effect or the level left; settings: Hippocampus
[4] = Agonist activity at muscarinic receptor in M4 receptor knock out mouse hippocampal CA1 pyramidal neuron assessed as reduction of excitatory postsynaptic current amplitude at 100 uM by whole-cell electrophysiology relative to control; format: functional; settings: Hippocampus
[5] = target: T1, Muscarinic acetylcholine receptor M4 (Rattus norvegicus); experiment: Agonist activity at muscarinic M4 receptor in Sprague-Dawley rat hippocampal CA1 pyramidal neuron assessed as reversible inhibition of excitatory postsynaptic current by whole-cell electrophysiology; format: functional, tissue-based; settings: Hippocampus
[6] = target: Muscarinic acetylcholine receptor M3 (Rattus norvegicus) (UniProt P08483); experiment: Displacement of [3H]NMS from rat recombinant muscarinic M3 receptor expressed in CHO cells after 2 hrs by microplate scintillation counting; format: cell-based
Muscarinic acetylcholine receptor M3 (Rattus norvegicus), sequence (P08483 whole entry, looked up): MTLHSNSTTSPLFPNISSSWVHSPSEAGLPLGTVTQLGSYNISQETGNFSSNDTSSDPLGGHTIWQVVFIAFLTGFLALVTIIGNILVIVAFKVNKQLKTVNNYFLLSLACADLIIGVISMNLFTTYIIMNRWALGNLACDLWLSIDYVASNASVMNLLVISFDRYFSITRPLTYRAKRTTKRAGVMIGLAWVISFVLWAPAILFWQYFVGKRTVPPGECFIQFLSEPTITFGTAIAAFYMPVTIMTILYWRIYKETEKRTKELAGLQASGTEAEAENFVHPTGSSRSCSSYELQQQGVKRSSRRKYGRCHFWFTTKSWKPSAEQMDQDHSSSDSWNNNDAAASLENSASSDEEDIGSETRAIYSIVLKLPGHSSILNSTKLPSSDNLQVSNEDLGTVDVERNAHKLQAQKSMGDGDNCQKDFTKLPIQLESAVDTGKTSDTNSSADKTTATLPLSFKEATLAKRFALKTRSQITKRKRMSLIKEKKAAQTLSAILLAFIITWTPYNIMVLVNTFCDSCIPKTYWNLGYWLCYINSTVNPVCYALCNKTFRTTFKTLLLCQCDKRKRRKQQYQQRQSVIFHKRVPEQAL

[7] = target: T1, Muscarinic acetylcholine receptor M4 (Rattus norvegicus); experiment: Allosteric activation of rat recombinant muscarinic M4 receptor expressed in CHO cells assessed as […] in acetylcholine EC50 for induction of calcium mobilization at 10 uM after 1 hr by fluorescence assay; format: functional, cell-based
[8] = target: T2, Muscarinic acetylcholine receptor M5 (Rattus norvegicus) (UniProt P08911); experiment: Allosteric activation of rat recombinant muscarinic M5 receptor expressed in CHO cells assessed as potentiation of acetylcholine-induced calcium mobilization at 10 uM after 1 hr by fluorescence assay; format: functional, cell-based
T2 sequence (whole entry): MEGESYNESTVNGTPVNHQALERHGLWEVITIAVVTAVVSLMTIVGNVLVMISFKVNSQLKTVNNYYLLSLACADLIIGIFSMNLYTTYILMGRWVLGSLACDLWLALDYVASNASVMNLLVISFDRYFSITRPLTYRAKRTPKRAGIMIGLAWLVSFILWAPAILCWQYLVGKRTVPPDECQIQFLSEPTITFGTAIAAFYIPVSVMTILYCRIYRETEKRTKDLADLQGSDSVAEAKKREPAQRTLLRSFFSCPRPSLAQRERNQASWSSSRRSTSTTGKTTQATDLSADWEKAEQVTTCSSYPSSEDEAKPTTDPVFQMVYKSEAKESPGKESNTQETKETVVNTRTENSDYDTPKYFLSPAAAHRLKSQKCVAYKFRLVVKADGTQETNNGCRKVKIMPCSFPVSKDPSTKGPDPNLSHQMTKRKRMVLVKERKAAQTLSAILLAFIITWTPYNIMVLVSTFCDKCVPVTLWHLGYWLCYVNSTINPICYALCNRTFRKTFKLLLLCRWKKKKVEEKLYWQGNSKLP

[9] = target: T3, Muscarinic acetylcholine receptor M4 (Mus musculus) (UniProt P32211); experiment: Agonist activity at muscarinic M4 receptor in wild type mouse hippocampal CA1 pyramidal neuron assessed as reduction of inhibitory postsynaptic current amplitude at 2 uM by whole-cell electrophysiology relative to control; format: functional, tissue-based; settings: Hippocampus
T3 sequence (whole entry): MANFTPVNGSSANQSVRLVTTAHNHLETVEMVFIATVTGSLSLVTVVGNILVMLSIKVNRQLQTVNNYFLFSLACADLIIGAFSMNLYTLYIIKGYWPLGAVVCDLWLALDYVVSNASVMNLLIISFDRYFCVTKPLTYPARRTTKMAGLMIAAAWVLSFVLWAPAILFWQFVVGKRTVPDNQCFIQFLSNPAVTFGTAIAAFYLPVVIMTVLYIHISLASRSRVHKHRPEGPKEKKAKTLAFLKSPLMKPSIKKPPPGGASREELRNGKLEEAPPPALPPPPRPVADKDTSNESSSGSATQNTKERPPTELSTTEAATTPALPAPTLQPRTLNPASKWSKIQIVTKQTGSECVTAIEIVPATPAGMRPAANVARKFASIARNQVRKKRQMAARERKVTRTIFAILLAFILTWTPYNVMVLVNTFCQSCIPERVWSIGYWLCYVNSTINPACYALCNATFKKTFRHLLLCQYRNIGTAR

[10] = target: T4, Muscarinic acetylcholine receptor M2 (Rattus norvegicus) (UniProt P10980); experiment: Allosteric activation of rat recombinant muscarinic M2 receptor expressed in CHO cells assessed as potentiation of acetylcholine-induced calcium mobilization at 10 uM after 1 hr by fluorescence assay; format: functional, cell-based
T4 sequence (whole entry): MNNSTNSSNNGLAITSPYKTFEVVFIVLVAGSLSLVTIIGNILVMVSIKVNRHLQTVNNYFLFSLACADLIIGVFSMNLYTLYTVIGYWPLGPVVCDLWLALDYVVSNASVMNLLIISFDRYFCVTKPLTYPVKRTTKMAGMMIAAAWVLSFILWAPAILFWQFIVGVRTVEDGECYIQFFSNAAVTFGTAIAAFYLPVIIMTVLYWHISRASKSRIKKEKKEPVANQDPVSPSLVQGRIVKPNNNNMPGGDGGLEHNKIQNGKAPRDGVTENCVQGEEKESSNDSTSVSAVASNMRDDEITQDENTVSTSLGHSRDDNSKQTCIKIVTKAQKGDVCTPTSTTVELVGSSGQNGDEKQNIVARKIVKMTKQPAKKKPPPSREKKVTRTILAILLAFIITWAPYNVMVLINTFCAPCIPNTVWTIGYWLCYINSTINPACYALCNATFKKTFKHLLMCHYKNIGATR

[11] = target: T1, Muscarinic acetylcholine receptor M4 (Rattus norvegicus); experiment: Agonist activity at muscarinic M4 receptor in Sprague-Dawley rat hippocampal CA1 pyramidal neuron assessed as reduction of inhibitory postsynaptic current at 5 uM by whole-cell electrophysiology in presence of carbachol relative to control; format: functional, tissue-based; settings: Hippocampus
[12] = target: T3, Muscarinic acetylcholine receptor M4 (Mus musculus); experiment: Agonist activity at muscarinic M4 receptor in wild type mouse hippocampal CA1 pyramidal neuron assessed as excitatory postsynaptic current amplitude at 5 uM by whole-cell electrophysiology relative to control; format: functional, tissue-based; settings: Hippocampus
[13] = Agonist activity at muscarinic receptor in M4 receptor knock out mouse hippocampal CA1 pyramidal neuron assessed as reduction of excitatory postsynaptic current amplitude at 2 uM by whole-cell electrophysiology relative to control; format: functional; settings: Hippocampus

## Cc1cc(C)c2c(N)c(C(=O)NCc3ccc(Cl)cc3)sc2n1
[1]
  fold change (FC): 14
[2]
  Activity: Dose-dependent effect
[3]
  Activity: 60.5%
[4]
  inhibition at 100 µM: 21.1%
[5]
  Activity: Dose-dependent effect
[6]
  Activity: inactive
[7]
  fold change (FC): 47
[8]
  Activity: inactive
[9]
  inhibition: 56%
[10]
  Activity: inactive
[11]
  inhibition: 61.7%
[12]
  Activity: 102%
[13]
  inhibition at 2 µM: 70.8%
